Experimental data reported in patent US7601332B2, “Vitamin receptor binding drug delivery conjugates” (priority 2003, dated 2009).

Legend:
[1] = Toxicity based on animal body weights in tumor-bearing mice; assay type: in vivo; conditions: Balb/c mice, s.c. M109 tumors, i.v. twice a week for 4 weeks, 2-10 μmol/kg
Procedure: The anti-tumor activity of the compounds of Examples 9b (EC111) and 9c (EC112), where the drug is daunorubicin, when administered intravenously (i.v.) to tumor-bearing animals, was evaluated in Balb/c mice bearing subcutaneous M109 tumors. Four days post tumor inoculation in the subcutis of the right axilla with 1×10^6 M109 cells, mice (5/group) were injected i.v. twice a week for 4 weeks with 2-10 μmol/kg of the compound of either Example 9b or Example 9c or with unconjugated daunorubicin or PBS. Tumor growth was measured using calipers at 3-day or 4-day intervals in each treatment group. Tumor volumes were calculated using the equation V=a×b^2/2, where “a” is the length of the tumor and “b” is the width expressed in millimeters. Animal body weight was also determined at 3-day or 4-day intervals.
The protocol was as described in Example 42 except that the compound of Example 10a (EC105) was used, where the drug is bis-indolyl-seco-CBI. The compound of Example 10a was injected at a dose of 0.3 μmol/kg. Also, two subcutaneous tumor models were tested including the M109 model (folate receptor-positive) and the 4T1 model (folate receptor-negative), and in some animals a 67-fold excess of free folate (20 μmol/kg; FA) was coinjected with the conjugate (i.e., the compound of Example 10a).

[2] = tested on: M109 tumors (folate receptor-positive); assay: Inhibition of subcutaneous M109 tumor growth in mice; assay type: in vivo; conditions: Balb/c mice, s.c. M109 tumors, i.v. twice a week for 4 weeks, 2-10 μmol/kg
Procedure: The anti-tumor activity of the compounds of Examples 9b (EC111) and 9c (EC112), where the drug is daunorubicin, when administered intravenously (i.v.) to tumor-bearing animals, was evaluated in Balb/c mice bearing subcutaneous M109 tumors. Four days post tumor inoculation in the subcutis of the right axilla with 1×10^6 M109 cells, mice (5/group) were injected i.v. twice a week for 4 weeks with 2-10 μmol/kg of the compound of either Example 9b or Example 9c or with unconjugated daunorubicin or PBS. Tumor growth was measured using calipers at 3-day or 4-day intervals in each treatment group. Tumor volumes were calculated using the equation V=a×b^2/2, where “a” is the length of the tumor and “b” is the width expressed in millimeters. Animal body weight was also determined at 3-day or 4-day intervals. […]
The anti-tumor activity of the compound of Example 16b (EC145), where the drug is deacetylvinblastine monohydrazide, when administered intravenously (i.v.) to tumor-bearing animals, was evaluated in Balb/c mice bearing subcutaneous M109 tumors. […] Tumor growth was measured using calipers at 2-day or 3-day intervals in each treatment group. Tumor volumes were calculated using the equation V=a×b^2/2, where “a” is the length of the tumor and “b” is the width expressed in millimeters. […]

SMILES | toxicity based on animal body weights [1] | anti-tumor activity (growth of M109 tumors) [2]
COc1cccc2c1C(=O)c1c(O)c3c(c(O)c1C2=O)C[C@@](O)(C(=O)CO)C[C@@H]3O[C@H]1C[C@H](N)[C@H](O)[C@H](C)O1 [doxorubicin] | concomitant toxicity | provided an anti-tumor response
COc1cccc2c1C(=O)c1c(O)c3c(c(O)c1C2=O)C[C@@](O)(/C(CO)=N\NC(=O)CCN1C(=O)CC(SC[C@H](NC(=O)CC[C@H](NC(=O)c2ccc(NCc4cnc5nc(N)[nH]c(=O)c5n4)cc2)C(=O)O)C(=O)O)C1=O)C[C@@H]3O[C@H]1CC(N)[C@H](O)C(C)O1 (stereo partly shown) [Example 9c] | no apparent toxicity | effective in delaying the growth of M109 tumors
